Data on 25 compounds can be found in patent US20180206495A1, “SUBSTITUTED ARYL AND HETEROARYL CARBOXYLIC ACID HYDRAZIDES OR SALTS THEREOF AND USE THEREOF TO INCREASE STRESS TOLERANCE IN PLANTS” (BAYER CROPSCIENCE AKTIENGESELLSCHAFT, priority 2015, published 2018).

Assay [1] has as its system Zea mays. The experiment in a line: In vivo analyses Part A: drought stress, spray application, visual damage scoring, Zea mays. As for the experimental part: (§1) Seeds of monocotyledonous and dicotyledonous crop plants were sown in sandy loam in wood-fiber or plastic pots, covered with soil or sand and cultivated in a greenhouse under good growth conditions. The trial plants were treated at the early leaf stage (BBCH10-BBCH13). To assure uniform water supply before commencement of stress, the potted plants were supplied with water by dam irrigation prior to substance application. The inventive compounds formulated in the form of wettable powders (WP) were sprayed onto the green parts of the plants as an aqueous suspension at an equivalent water application rate of 600 l/ha with addition of 0.2% wetting agent (e.g. agrotin). Substance application was followed immediately by stress treatment of the plants. For this purpose, the wood-fiber pots were transferred in plastic inserts in order to prevent them from subsequently drying out too quickly. Drought stress was induced by gradual drying out under the following conditions: “Day”: 14 hours with illumination at ˜26-30° C. “Night”: 10 hours without illumination at ˜18-20° C. The duration of the respective stress phases was guided mainly by the condition of the stressed control plants. It was ended (by re-irrigating and transfer to a greenhouse with good growth conditions) as soon as irreversible damage was observed on the stressed control plants. The end of the stress phase was followed by an about 4-7-day recovery phase, during which the plants were once again kept under good growth conditions in a greenhouse. The duration of the recovery phase was guided mainly by when the trial plants had attained a state which enabled visual scoring of potential effects, and is therefore variable. Once this juncture was reached, the intensities of damage were scored visually in comparison to untreated, unstressed controls of the same age. The damage intensity was at first assessed in per cent. These values were then used to calculate the efficacy of the test compounds by the following formula: [formula] EF: Efficacy DIs: Damage intensity of the stressed control plants DIt: Damage intensity of the stressed plants treated with test compound The values reported in tables A-1 to A-3 below are mean values from at least one trial with at least two repeats, showing the effects of selected compounds of the general formula (I) under drought stress on various crop plants.

In assay [2] the test system is Brassica napus. Kind of assay: In vivo analyses Part A: drought stress, spray application, visual damage scoring, Brassica napus. As for the experimental part:
as §1

In assay [3] the test system is Brassica napus. The experiment in a line: In vivo analyses Part B: drought stress, spray application, appearance vs stressed control in categories, Brassica napus. Further details: key: 0: no positive effect; +: slight positive effect; ++: clear positive effect; +++: strong positive effect. Particulars: dosage 25 g/ha. The protocol:
(§2) Seeds of monocotyledonous and dicotyledonous crop plants were sown in sandy loam in plastic pots, covered with soil or sand and cultivated in a greenhouse under good growth conditions. The test plants are treated at the early leaf stage (BBCH10-BBCH13). To assure uniform water supply before commencement of stress, the potted plants were supplied with water by dam irrigation prior to substance application. The inventive compounds were first formulated as wettable powders (WP) or dissolved in a solvent mixture. The further dilution was effected with water supplemented with 0.2% wetting agent (e.g. agrotin). The finished spray liquor was sprayed onto the green parts of the plant at an equivalent water application rate of 600 l/ha. Substance application was followed immediately by stress treatment of the plants. Drought stress was induced by gradual drying out under the following conditions: “Day”: 14 hours with illumination at ˜26-30° C. “Night”: 10 hours without illumination at ˜18-20° C. The duration of the respective stress phases was guided mainly by the condition of the stressed control plants. It was ended (by re-irrigating and transfer to a greenhouse with good growth conditions) as soon as irreversible damage was observed on the stressed control plants. The end of the stress phase was followed by an about 4-7-day recovery phase, during which the plants were once again kept under good growth conditions in a greenhouse. The duration of the recovery phase was guided mainly by when the trial plants had attained a state which enabled visual scoring of potential effects, and was therefore variable. Once this juncture had been reached, the appearance of the plants treated with test substances was recorded in comparison to the stressed control plants by the following categories: • 0 no positive effect • + slight positive effect • ++ clear positive effect • +++ strong positive effect In order to rule out any influence on the effects observed by any fungicidal or insecticidal action of the test compounds, it was additionally ensured that the tests proceeded without fungal infection or insect infestation. The values reported in tables B-1 and B-2 below are mean values of the results from at least three repeats. Effects of selected compounds of the general formula (I) under drought stress according to the following tables B-1 and B-2: […]

Assay [4] deals with Triticum aestivum. Kind of assay: In vivo analyses Part B: drought stress, spray application, appearance vs stressed control in categories, Triticum aestivum. Particulars: dosage 25 g/ha. Further details: key: 0: no positive effect; +: slight positive effect; ++: clear positive effect; +++: strong positive effect. As for the experimental part: as §2
Assay [5] relates to Triticum aestivum. Kind of assay: In vivo analyses Part A: drought stress, spray application, visual damage scoring, Triticum aestivum. The settings on record: dosage 250 g/ha. The protocol:
as §1

In the case of `CN(C)N(Cc1c(Cl)cccc1Cl)C(=O)c1ccccc1C(F)(F)F` [A1-7], the “EF [%] (ZEAMX)” value in assay [1] (dosage 250 g/ha) was more than 5%.
Consider `CN(C)N(Cc1ccccn1)C(=O)c1ccccc1C(F)(F)F` [A1-21], for which the “EF [%] (BRSNS)” value in assay [2] (dosage 25 g/ha) is reported as more than 5%.
As to `CN(C)N(Cc1ccc(Br)cc1F)C(=O)c1ccccc1C(F)(F)F` [A1-44], in assay [1] (dosage 250 g/ha), the “EF [%] (ZEAMX)” value is on record as more than 5%.
As for `COc1cc(Cl)c(CN(C(=O)c2ccccc2C(F)(F)F)N(C)C)cc1OC` [A1-147], the “EF [%] (BRSNS)” value in assay [2] (dosage 25 g/ha) is given as more than 5%. In addition, the “EF [%] (ZEAMX)” value in assay [1] (dosage 250 g/ha) is given as more than 5%.
For `CN(C)N(CCc1ccccc1Cl)C(=O)c1ccccc1C(F)(F)F` [A1-612], in assay [1] (dosage 250 g/ha), the “EF [%] (ZEAMX)” value was more than 5%. The “Effect (BRSNS)” value in assay [3] was “+”. Also, the “Effect (TRZAS)” value in assay [4] was “+”.
Consider `CN(C)N(CCc1cccc(Cl)c1)C(=O)c1ccccc1C(F)(F)F` [A1-613], for which the “EF [%] (ZEAMX)” value in assay [1] (dosage 250 g/ha) was more than 5%.
On to `CN(C)N(Cc1ccccc1Cl)C(=O)c1cc(Cl)ccc1Cl` [A7-1], for which the “EF [%] (BRSNS)” value in assay [2] (dosage 25 g/ha) was more than 5%.
Consider `CN(C)N(Cc1ccccc1F)C(=O)c1cc(Cl)ccc1Cl` [A7-11], for which, in assay [2] (dosage 25 g/ha), the “EF [%] (BRSNS)” value is on record as more than 5%.
Same read-out and setting: the same measure for `CN(C)N(Cc1ccc2ccccc2n1)C(=O)c1cc(Cl)ccc1Cl` [A7-122]: more than 5%.
Turning to `CN(C)N(CCc1ccc(C(C)(C)C)cc1)C(=O)c1cc(Cl)ccc1Cl` [A7-639], in assay [2] (dosage 25 g/ha), the “EF [%] (BRSNS)” value is more than 5%. Moreover, the “EF [%] (ZEAMX)” value in assay [1] (dosage 250 g/ha) was more than 5%.
For `COc1ccccc1C(=O)N(Cc1ccccc1Cl)N(C)C` [A8-1], the “EF [%] (BRSNS)” value in assay [2] (dosage 2.5 g/ha) is given as more than 5%.
With `CN(C)N(Cc1ccc(Cl)cc1)C(=O)c1ccc(Cl)cc1` [A9-3], the “EF [%] (BRSNS)” value in assay [2] (dosage 250 g/ha) is reported as more than 5%. Moreover, the “EF [%] (ZEAMX)” value in assay [1] (dosage 250 g/ha) is reported as more than 5%.
Take `Cc1c(OCC(F)(F)F)ccnc1CN(C(=O)c1ccc(Cl)cc1)N(C)C` [A9-144]: the “EF [%] (ZEAMX)” value in assay [1] (dosage 25 g/ha) was more than 5%.
For `CN(C)N(CCc1ccc(Cl)cc1)C(=O)c1ccc(Cl)cc1` [A9-614], the “EF [%] (BRSNS)” value in assay [2] (dosage 250 g/ha) is given as more than 5%.
As for `CN(C)N(CCc1ccc(Cl)cc1Cl)C(=O)c1ccc(Cl)cc1` [A9-615], the “EF [%] (ZEAMX)” value in assay [1] (dosage 250 g/ha) is given as more than 5%.
As to `CN(C)N(CCc1ccc(C(C)(C)C)cc1)C(=O)c1ccc(Cl)cc1` [A9-639], the “EF [%] (ZEAMX)” value in assay [1] (dosage 250 g/ha) is recorded as more than 5%.
Same read-out and setting: as for `Cc1ccc(CCN(C(=O)c2ccc(Cl)cc2)N(C)C)cc1C` [A9-663], the figure is more than 5%.
For `CN(C)N(Cc1c(Cl)cccc1Cl)C(=O)c1ccccc1Cl` [A10-7], in assay [2] (dosage 250 g/ha), the “EF [%] (BRSNS)” value is on record as more than 5%.
Take `COc1cc(OC)nc(CN(C(=O)c2ccccc2Cl)N(C)C)n1` [A10-30]: the “EF [%] (TRZAS)” value in assay [5] is on record as more than 5%.
For the compound `COc1c(C)cnc(CN(C(=O)c2ccccc2Cl)N(C)C)c1C` [A10-37], in assay [1] (dosage 250 g/ha), the “EF [%] (ZEAMX)” value is on record as more than 5%.
Regarding `CN(C)N(Cc1ccccc1C#N)C(=O)c1ccccc1Cl` [A10-61], the “EF [%] (BRSNS)” value in assay [2] (dosage 25 g/ha) was more than 5%.
On to `Cc1c(OCC(F)(F)F)ccnc1CN(C(=O)c1ccccc1Cl)N(C)C` [A10-144], for which, in assay [5], the “EF [%] (TRZAS)” value was more than 5%.
Regarding `CN(C)N(Cc1ccc(Cl)cc1Cl)C(=O)c1ccc(Cl)cc1Cl` [A12-5], in assay [2] (dosage 25 g/ha), the “EF [%] (BRSNS)” value was more than 5%.
Still for that read-out and setting: the same measure for `CN(C)N(Cc1cc(C(F)(F)F)ccc1Cl)C(=O)c1ccc(Cl)cc1Cl` [A12-86]: more than 5%.
With `CN(C)N(Cc1ncc(C(F)(F)F)cc1Cl)C(=O)c1ccc(F)cc1C(F)(F)F` [A14-36], the “EF [%] (ZEAMX)” value in assay [1] (dosage 250 g/ha) is listed as more than 5%.
